The source of these data is US20120053200A1, “BACE 2 INHIBITORS” (priority 2010, published 2012).

In the test the target is T1, BACE2 (Rattus norvegicus, UniProt Q6IE75).
T1 construct: endogenous cellular BACE2 in the Ins1e rat cell line; endogenous in cells; host or cells: INS-TMEM27 (INS1e-derived rat beta-cell line with doxycycline-inducible full-length hTMEM27)
T1 sequence (Q6IE75 63-514): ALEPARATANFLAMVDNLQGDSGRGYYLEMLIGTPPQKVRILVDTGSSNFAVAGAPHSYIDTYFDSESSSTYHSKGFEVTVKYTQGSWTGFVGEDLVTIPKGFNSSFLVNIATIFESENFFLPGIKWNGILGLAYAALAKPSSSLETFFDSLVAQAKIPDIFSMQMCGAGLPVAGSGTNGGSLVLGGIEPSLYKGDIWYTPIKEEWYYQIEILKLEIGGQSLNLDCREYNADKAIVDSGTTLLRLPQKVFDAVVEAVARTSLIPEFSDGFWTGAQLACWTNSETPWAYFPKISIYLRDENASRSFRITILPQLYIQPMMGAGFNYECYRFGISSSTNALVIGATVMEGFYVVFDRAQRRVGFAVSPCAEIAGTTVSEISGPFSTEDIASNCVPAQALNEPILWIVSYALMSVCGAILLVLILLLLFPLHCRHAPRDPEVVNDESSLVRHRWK
As to the kind of experiment: Assay for BACE inhibition by measuring cellular TMEM27 cleavage (INS-TMEM27 cells, ELISA of shed TMEM27). It counts as cell-based. The conditions noted are these: inhibition of human TMEM27 cleavage by endogenous cellular BACE2 in INS1e-derived INS-TMEM27 rat cell line; ELISA of shed TMEM27 in supernatant. The text has this: Assay for […] Inhibition by Measuring Cellular TMEM27 Cleavage
This assay uses the principle of inhibition of human TMEM27 cleavage by endogenous cellular BACE2 in the Ins1e rat cell line and shedding from the cell surface into the culture medium, followed by detection in an ELISA assay. Inhibition of BACE2 prevents the cleavage and shedding in a dose-dependent manner.
The stable cell line “INS-TMEM27” represents an INS1e-derived cell line with inducible expression (using the TetOn system) of full-length hTMEM27 in a doxycycline-dependent manner. The cells were cultured throughout the experiment in RPMI1640+Glutamax (Invitrogen) Penicillin/Streptomycin, 10% Fetal bovine serum, 100 mM pyruvate, […] beta-mercatptoethanol, 100 micrograms/ml G418 and 100 microgram/ml hygromycin and were grown in adherent culture at 37° C. in a standard CO2 cell culture incubator.
INS-TMEM27 cells were seeded in 96-well plates. After 2 days in culture, BACE2 inhibitor was added in a range of concentrations as required by the assay and after a further two hours, doxycycline was added to a final concentration of 500 ng/ml. The cells were incubated for a further 46 hours and the supernatant harvested for detection of shed TMEM27.
An ELISA assay (using a pair of mouse anti-human-TMEM27 antibodies, raised against the extracellular domain of TMEM27) was used for detection of TMEM27 in the culture medium. An IC50 for BACE2 inhibition was calculated using the ELISA readout for each inhibitor concentration with standard curve-fitting software.
The inhibitory activity, given as an IC50 value, of the compounds of Examples 1 to 32 and 34 to 74 were as follows.
On the technique in general: An ELISA detects its analyte on a solid surface through an enzyme-linked reagent.

One may read the IC50 as the concentration at which inhibition is half-maximal. The low end stands for higher potency, the high end for lower potency.

With `Cc1cc(C(=O)N[C@@H](Cc2ccccc2)[C@H](O)CNCc2cccc(C(F)(F)F)c2)cc(C(=O)N2CCCC2c2ccccc2)c1` (stereo partly drawn) [Example 51, N-[(1S,2R)-1-Benzyl-2-hydroxy-3-(3-trifluoromethyl-benzylamino)-propyl]-3-methyl-5-(2-phenyl-pyrrolidine-1-carbonyl)-benzamide], it took 0.4 nM to reach half-maximal inhibition (IC50).

The compound `CN(Cc1ccccn1)C(=O)c1cccc(C(=O)N[C@@H](Cc2ccccc2)[C@H](O)CNCc2cccc(OC(F)(F)F)c2)c1` [Example 29, N-[(1S,2R)-1-Benzyl-2-hydroxy-3-(3-trifluoromethoxy-benzylamino)-propyl]-N′-methyl-N′-pyridin-2-ylmethyl-isophthalamide] came in with an IC50 of 112 nM.

For the compound `Cc1cc(C(=O)N[C@@H](Cc2ccccc2)[C@H](O)CNCc2cccc(OC(F)(F)F)c2)cc(C(=O)N2CCCC2c2ccccc2)c1` (stereo partly drawn) [Example 43, N-[(1S,2R)-1-Benzyl-2-hydroxy-3-(3-trifluoromethoxy-benzylamino)-propyl]-3-methyl-5-(2-phenyl-pyrrolidine-1-carbonyl)-benzamide], it took 3 nM to reach half-maximal inhibition (IC50).

`O=C(N[C@@H](Cc1ccccc1)[C@H](O)CNCc1cccc(C(F)(F)F)c1)c1cccc(C(=O)N2CCCC2C(=O)c2ccccc2)c1` (stereo partly drawn) [Example 71, 3-(2-Benzoyl-pyrrolidine-1-carbonyl)-N-[(1S,2R)-1-benzyl-2-hydroxy-3-(3-trifluoromethyl-benzylamino)-propyl]-benzamide] gave an IC50 of 484 nM.

As to `O=C(NCc1ccccn1)c1cccc(C(=O)N[C@@H](Cc2ccccc2)[C@H](O)CNCc2cccc(OC(F)(F)F)c2)c1` [Example 6, N-[(1S,2R)-1-Benzyl-2-hydroxy-3-(3-trifluoromethoxy-benzylamino)-propyl]-N′-pyridin-2-ylmethyl-isophthalamide], the IC50 came to 520 nM.

On to `Cc1csc(CN(C)C(=O)c2cccc(C(=O)N[C@@H](Cc3ccccc3)[C@H](O)CNCc3cccc(C(F)(F)F)c3)c2)n1` [Example 1, N-[(1S,2R)-1-Benzyl-2-hydroxy-3-(3-trifluoromethyl-benzylamino)-propyl]-N′-methyl-N′-(4-methyl-thiazol-2-ylmethyl)-isophthalamide], for which the IC50 turned out to be 205 nM.

Compound `CN(Cc1ccccn1)C(=O)c1cccc(C(=O)N[C@@H](Cc2ccccc2)[C@H](O)CNCc2cccc(C(F)(F)F)c2)c1` [Example 18, N-[(1S,2R)-1-Benzyl-2-hydroxy-3-(3-trifluoromethyl-benzylamino)-propyl]-N′-methyl-N′-pyridin-2-ylmethyl-isophthalamide] gave an IC50 of 47 nM.

Compound “N-[(1S,2R)-1-Benzyl-2-hydroxy-3-(3-trifluoromethyl-benzylamino)-propyl]-3-(methanesulfonyl-methyl-amino)-5-(2-phenyl-pyrrolidine-1-carbonyl)-benzamide [Example 50]” displayed an IC50 of 3 nM.

On to `Cc1csc([C@H]2CCCN2C(=O)c2cc(C(=O)N[C@@H](Cc3ccccc3)[C@H](O)CNCc3cccc(OC(F)(F)F)c3)cc(N(C)S(C)(=O)=O)c2)n1` [Example 41, N-[(1S,2R)-1-Benzyl-2-hydroxy-3-(3-trifluoromethoxy-benzylamino)-propyl]-3-(methanesulfonyl-methyl-amino)-5-[(R)-2-(4-methyl-thiazol-2-yl)-pyrrolidine-1-carbonyl]-benzamide], for which the concentration for half-maximal inhibition (IC50) is 0.1 nM.

Turning to `Cc1cc(C(=O)N[C@@H](Cc2ccccc2)[C@H](O)CNCc2cccc(OC(F)(F)F)c2)cc(C(=O)N2CCCC2c2cccs2)c1` (stereo partly drawn) [Example 46, N-[(1S,2R)-1-Benzyl-2-hydroxy-3-(3-trifluoromethoxy-benzylamino)-propyl]-3-methyl-5-(2-thiophen-2-yl-pyrrolidine-1-carbonyl)-benzamide], it took 1 nM to reach half-maximal inhibition (IC50).

With `O=C(N[C@@H](Cc1ccccc1)[C@H](O)CNCc1cccc(C(F)(F)F)c1)c1cccc(C(=O)N2CCCC2c2ccc(F)c(Cl)c2)c1` (stereo partly drawn) [Example 59, N-[(1S,2R)-1-Benzyl-2-hydroxy-3-(3-trifluoromethyl-benzylamino)-propyl]-3-[2-(3-chloro-4-fluoro-phenyl)-pyrrolidine-1-carbonyl]-benzamide], 33 nM corresponded to half-maximal inhibition (IC50).

`O=C(N[C@@H](Cc1ccccc1)[C@H](O)CNCc1cccc(C(F)(F)F)c1)c1cccc(C(=O)N2CCCC2c2cccc(Cl)c2)c1` (stereo partly drawn) [Example 57, N-[(1S,2R)-1-Benzyl-2-hydroxy-3-(3-trifluoromethyl-benzylamino)-propyl]-3-[2-(3-chloro-phenyl)-pyrrolidine-1-carbonyl]-benzamide] registered an IC50 of 619 nM.

Compound `CN(c1cc(C(=O)N[C@@H](Cc2ccccc2)[C@H](O)CNCc2cccc(OC(F)(F)F)c2)cc(C(=O)N2CCCC2c2cccs2)c1)S(C)(=O)=O` (stereo partly drawn) [Example 45, N-[(1S,2R)-1-Benzyl-2-hydroxy-3-(3-trifluoromethoxy-benzylamino)-propyl]-3-(methanesulfonyl-methyl-amino)-5-(2-thiophen-2-yl-pyrrolidine-1-carbonyl)-benzamide] returned an IC50 of 11 nM. Compared with the last compound, the IC50 is about 56-fold lower.

Compound `CCc1ccc(C2CCCN2C(=O)c2cccc(C(=O)N[C@@H](Cc3ccccc3)[C@H](O)CNCc3cccc(C(F)(F)F)c3)c2)cc1` (stereo partly drawn) [Example 62, N-[(1S,2R)-1-Benzyl-2-hydroxy-3-(3-trifluoromethyl-benzylamino)-propyl]-3-[2-(4-ethyl-phenyl)-pyrrolidine-1-carbonyl]-benzamide] came in with a half-inhibitory concentration (IC50) of 764 nM. Against the preceding compound, the IC50 is about 69-fold higher.

In turn, `CCn1cc(CNC[C@@H](O)[C@H](Cc2ccccc2)NC(=O)c2cccc(C(=O)N3CCCC3c3cccs3)c2)cn1` (stereo partly drawn) [Example 31, N-{(1S,2R)-1-Benzyl-3-[(1-ethyl-1H-pyrazol-4-ylmethyl)-amino]-2-hydroxy-propyl}-3-(2-thiophen-2-yl-pyrrolidine-1-carbonyl)-benzamide] yielded an IC50 of 239 nM.

In the case of `O=C(N[C@@H](Cc1ccccc1)[C@H](O)CNCc1cccc(OC(F)(F)F)c1)c1cccc(C(=O)N2CCCC2c2ccccc2)c1` (stereo partly drawn) [Example 24, N-[(1S,2R)-1-Benzyl-2-hydroxy-3-(3-trifluoromethoxy-benzylamino)-propyl]-3-(2-phenyl-pyrrolidine-1-carbonyl)-benzamide], it took 68 nM to reach half-maximal inhibition (IC50).

For the compound `Cc1csc([C@H]2CCCN2C(=O)c2cccc(C(=O)N[C@@H](Cc3ccccc3)[C@H](O)CNCc3cccc(OC(F)(F)F)c3)c2)n1` [Example 21, N-[(1S,2R)-1-Benzyl-2-hydroxy-3-(3-trifluoromethoxy-benzylamino)-propyl]-3-[(R)-2-(4-methyl-thiazol-2-yl)-pyrrolidine-1-carbonyl]-benzamide], the IC50 stood at 37 nM. This IC50 is about 1.8-fold lower than that of the compound before.

As for `O=C(N[C@@H](Cc1ccccc1)[C@H](O)CNCc1cccc(OC(F)(F)F)c1)c1cccc(C(=O)N2CCCC2c2cccs2)c1` (stereo partly drawn) [Example 32, N-[(1S,2R)-1-Benzyl-2-hydroxy-3-(3-trifluoromethoxy-benzylamino)-propyl]-3-(2-thiophen-2-yl-pyrrolidine-1-carbonyl)-benzamide], it took 138 nM to reach half-maximal inhibition (IC50).

Compound `O=C(N[C@@H](Cc1ccccc1)[C@H](O)CNCc1cccc(OC(F)(F)F)c1)c1cccc(C(=O)N2CCCC2c2ccncc2)c1` (stereo partly drawn) [Example 4, N-[(1S,2R)-1-Benzyl-2-hydroxy-3-(3-trifluoromethoxy-benzylamino)-propyl]-3-(2-pyridin-4-yl-pyrrolidine-1-carbonyl)-benzamide] had a half-inhibitory concentration (IC50) of 471 nM. Against the preceding compound, the IC50 is about 3.4-fold higher.
